How the values were obtained:
CYP2C19 = assay: In vitro cocktail CYP450 activity assay in rat liver microsomes, CYP2C19 (omeprazole probe)
Experimental: (§1) (OHBUP-[D6]) and 5 nM 4′-hydroxydiclofenac-[^13C6] (OHDIC-[^13C6]) as internal standards (ISs). […]
(§2) standard addition experiments. Each group included four concentration levels. For the PK […]
(§3) The probe compounds, viz. […]
(§4) chosen after incubating all the recruited substrates. In order to assure the linear relationship […]
(§5) The incubation system was also optimized in terms of substrate concentrations. The substrates concentrations of […]

CYP1A2 = biological target: T1, CYP1A2 (Rattus norvegicus, UniProt P04799); assay: In vitro cocktail CYP450 activity assay in rat liver microsomes, CYP1A2 (phenacetin probe)
T1 sequence (P04799 1-513): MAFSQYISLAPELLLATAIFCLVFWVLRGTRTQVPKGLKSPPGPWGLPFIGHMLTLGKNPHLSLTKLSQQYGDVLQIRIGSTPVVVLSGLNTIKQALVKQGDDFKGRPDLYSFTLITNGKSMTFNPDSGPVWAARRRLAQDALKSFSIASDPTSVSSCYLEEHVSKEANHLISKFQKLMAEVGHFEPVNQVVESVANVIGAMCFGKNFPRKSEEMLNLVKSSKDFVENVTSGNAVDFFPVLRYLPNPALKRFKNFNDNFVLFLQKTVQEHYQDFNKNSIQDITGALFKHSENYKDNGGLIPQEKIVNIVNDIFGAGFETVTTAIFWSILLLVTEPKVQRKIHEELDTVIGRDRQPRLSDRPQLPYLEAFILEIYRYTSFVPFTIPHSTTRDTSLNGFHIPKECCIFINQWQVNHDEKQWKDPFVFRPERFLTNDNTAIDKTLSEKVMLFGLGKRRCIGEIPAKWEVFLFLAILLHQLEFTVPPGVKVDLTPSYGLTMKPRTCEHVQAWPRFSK
Experimental: as §1, §2, §3, §4, §5

CYP2C9 = assay: In vitro cocktail CYP450 activity assay in rat liver microsomes, CYP2C9 (tolbutamide probe)
Experimental: as §1, §2, §3, §4, §5

CYP2D6 = assay: in vitro; details: Sprague-Dawley, rat
Experimental: as §1, §2, §3, §4, §5

CYP2B6 = assay: In vitro cocktail CYP450 activity assay in rat liver microsomes, CYP2B6 (bupropion probe)
Experimental: as §1, §2, §3, §4, §5

CYP3A4 = assay: in vitro
Experimental: as §1, §2, §3, §4, §5

CYP2E1 [1] = biological target: T2, CYP2E1 (Rattus norvegicus, UniProt P05182); details: Sprague-Dawley, rat, 15 min, pH 7.4
T2 sequence (P05182 whole entry): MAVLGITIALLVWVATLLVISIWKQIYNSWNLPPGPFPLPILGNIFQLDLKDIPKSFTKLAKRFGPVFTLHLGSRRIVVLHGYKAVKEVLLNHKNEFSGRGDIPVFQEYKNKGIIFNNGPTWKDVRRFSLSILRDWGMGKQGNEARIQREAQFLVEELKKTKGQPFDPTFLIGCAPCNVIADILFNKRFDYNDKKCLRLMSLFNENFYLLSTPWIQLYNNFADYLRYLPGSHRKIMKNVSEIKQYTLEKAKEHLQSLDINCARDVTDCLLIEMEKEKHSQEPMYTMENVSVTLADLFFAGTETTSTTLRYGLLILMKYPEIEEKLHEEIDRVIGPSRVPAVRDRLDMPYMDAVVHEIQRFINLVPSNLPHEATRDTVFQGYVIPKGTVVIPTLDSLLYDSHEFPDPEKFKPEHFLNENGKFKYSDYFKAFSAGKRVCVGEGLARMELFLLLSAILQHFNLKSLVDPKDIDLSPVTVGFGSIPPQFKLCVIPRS

in vivo = assay: in vivo; set-up: species or system Sprague-Dawley (SD) rats; details: Sprague-Dawley, plasma, rat
Experimental: At each time, 0.5 mL of blood was collected in the heparin sodium tubes. Plasma was separated by centrifugation at 4000 rpm for 10 min and stored below −80 °C until bioanalysis. Oasis PRiME HLB SPE cartridges (1 cc/30 mg, Waters, Milford, MA, USA) were used to process the plasma samples (Supplementary Materials).
The generic layout of instrumentation setup of the LVDI-UHPLC-MS/MS was conducted on a Shimadzu UHPLC system consisting of two LC-20ADXR pumps, a DGU-20A3R degasser, and a CBM-20A controller (Kyoto, Japan) with a SCIEX 4500 QTRAP mass spectrometer mounted with an electron spray ionization (ESI) interface as well as an electronic 6-port/2-channel valve (Foster City, CA, USA). Analyst software package (version 1.6.2, SCIEX) was implemented to control and synchronize the entire system, and also for data acquisition and processing. A single analytical run was fragmented into two phases, namely, loading and elution phases, by switching the electronic valve (Figure 2). At the loading phase, the valve was maintained at A-channel. The specimen aliquot of large volume delivered from the auto-sampler was captured onto a guard column. Meanwhile, the pumps were responsible for delivering the mobile phase at a high flow rate, aiming to dilute the sample solvent, thus facilitating the candidate constituents to concentrate on the pre-guard column. Then, the valve was automatically switched to the B-channel to trigger the elution phase. The trapped components were flushed from the pre-guard column into an analytical column, and underwent multiple reaction monitoring (MRM) analysis on the optimized LC gradients. The detailed information of LVDI-UHPLC-MS/MS analysis for pharmacokinetic and cocktail studies is shown in the Supplementary Materials section.

CYP2E1 [2] = biological target: T2, CYP2E1; details: IC50 CYP2E1, single components; RLM 0.2 mg/mL, 15 min, triplicate, mean ± SD
[3] = at the Cmax level in rat plasma, calculated from the dose–response curve

In the case of `CC(C)=CCC[C@](C)(O[C@@H]1O[C@H](CO)[C@@H](O)[C@H](O)[C@H]1O)[C@H]1CC[C@]2(C)[C@@H]1[C@H](O)C[C@@H]1[C@@]3(C)CC[C@H](O)C(C)(C)[C@@H]3[C@@H](O[C@@H]3O[C@H](CO)[C@@H](O)[C@H](O)[C@H]3O)C[C@]12C` [GRg1, ginsenoside Rg1], the IC50 at 15 min (CYP2C19; Sprague-Dawley, rat, pooled rat liver microsomes, pH 7.4, probe omeprazole (1.07 µM, in seven-probe cocktail), IC50 CYP2C19, single components, RLM 0.2 mg/mL, 15 min, triplicate, mean ± SD) is reported as 78.1 ± 5.25 µM, the “Response (% control) CYP2C19” value (CYP2C19; [3]) is reported as 99.83 % control and the IC50 (CYP1A2; IC50 CYP1A2, single components, RLM 0.2 mg/mL, 15 min, triplicate, mean ± SD) is reported as 13.1 ± 8.24 µM. For the same compound, the “Response (% control) CYP1A2” value (CYP1A2; [3]) was 98.46 % control, the IC50 at 15 min (CYP2C9; Sprague-Dawley, rat, pooled rat liver microsomes, pH 7.4, probe tolbutamide (18 µM, in seven-probe cocktail), IC50 CYP2C9, single components, RLM 0.2 mg/mL, 15 min, triplicate, mean ± SD) was 36.5 ± 1.32 µM and the “Response (% control) CYP2C9” value (CYP2C9; [3]) was 96.27 % control. The “Response (% control) CYP2D6” value (CYP2D6; 15 min, pH 7.4) was 99.88 % control, the IC50 at 15 min (CYP2D6; microsomes, pH 7.4, IC50 CYP2D6) was 55.7 ± 6.08 µM and the IC50 at 15 min (CYP2B6; Sprague-Dawley, rat, pooled rat liver microsomes, pH 7.4, probe bupropion (90 µM, in seven-probe cocktail), IC50 CYP2B6, single components, RLM 0.2 mg/mL, 15 min, triplicate, mean ± SD) was 11 ± 0.87 µM. For the same compound, the “Response (% control) CYP2B6” value (CYP2B6; [3]) was 98.23 % control, the IC50 (CYP3A4; Sprague-Dawley, rat, microsomes, pH 7.4, IC50 CYP3A4, single components, RLM 0.2 mg/mL, 15 min, triplicate, mean ± SD) was 39.2 ± 4.57 µM and the “Response (% control) CYP3A4” value (CYP3A4; [3]) was 97.76 % control. The “Response (% control) CYP2E1” value (CYP2E1 [1]) was 99.57 % control, the concentration at […] (in vivo; 0.083 h after oral CNP) was 0.38 ± 0.15 ng/mL and the concentration at 0.25 h (in vivo; 0.25 h after oral CNP) was 0.48 ± 0.07 ng/mL. For the same compound, the concentration at 0.5 h (in vivo; 0.5 h after oral CNP) was 0.53 ± 0.37 ng/mL, the concentration at 1 h (in vivo; 1 h after oral CNP) was 0.4 ± 0.23 ng/mL and the concentration at 1.5 h (in vivo; 1.5 h after oral CNP) was 0.43 ± 0.32 ng/mL. It also gave a concentration at 2 h (in vivo; 2 h after oral CNP) of 0.4 ± 0.14 ng/mL, a concentration at 3 h (in vivo; 3 h after oral CNP) of 0.53 ± 0.4 ng/mL and a concentration at 4 h (in vivo; 4 h after oral CNP) of 0.47 ± 0.13 ng/mL. It also gave a concentration at 6 h (in vivo; 6 h after oral CNP) of 0.37 ± 0.17 ng/mL, a concentration at 8 h (in vivo; 8 h after oral CNP) of 0.65 ± 0.2 ng/mL and a concentration at 12 h (in vivo; 12 h after oral CNP) of 0.6 ± 0.36 ng/mL. It also gave a concentration at 24 h (in vivo; 24 h after oral CNP) of 0.34 ± 0.12 ng/mL, a concentration at 48 h (in vivo; 48 h after oral CNP) of 0.13 ± 0.04 ng/mL and an AUC(0-inf) (in vivo; po, 60 mg/kg) of 16.7 ± 3.93 ng·h/mL. It also gave an AUC(0-t) (in vivo; po, 60 mg/kg) of 14 ± 5.03 ng·h/mL, a Cmax (in vivo; po, 60 mg/kg) of 0.78 ± 0.13 ng/mL and a Tmax (in vivo; po, 60 mg/kg) of 4.71 ± 3.71 h. The half-life (in vivo; po, 60 mg/kg) was 11.7 ± 2.09 h, the concentration at 0.25 h (in vivo; po, 60 mg·kg^−1) was 0.56 ± 0.15 ng/mL and the concentration at 0.5 h (in vivo; po, 60 mg·kg^−1) was 0.37 ± 0.12 ng/mL. It also gave a concentration at 1 h (in vivo; po, 60 mg·kg^−1) of 0.44 ± 0.19 ng/mL, a concentration at 1.5 h (in vivo; po, 60 mg·kg^−1) of 0.33 ± 0.21 ng/mL and a concentration at 2 h (in vivo; po, 60 mg·kg^−1) of 0.21 ± 0.05 ng/mL. The concentration at 3 h (in vivo; po, 60 mg·kg^−1) was 0.49 ± 0.29 ng/mL, the concentration at 4 h (in vivo; po, 60 mg·kg^−1) was 0.34 ± 0.32 ng/mL and the concentration at 6 h (in vivo; po, 60 mg·kg^−1) was 0.37 ± 0.13 ng/mL. For the same compound, the concentration at 8 h (in vivo; po, 60 mg·kg^−1) was 0.63 ± 0.14 ng/mL, the concentration at 12 h (in vivo; po, 60 mg·kg^−1) was 0.59 ± 0.27 ng/mL and the concentration at 24 h (in vivo; po, 60 mg·kg^−1) was 0.22 ± 0.13 ng/mL. For the same compound, the concentration at 48 h (in vivo; po, 60 mg·kg^−1) was 0.09 ± 0.01 ng/mL and the IC50 (CYP2E1 [2]) was 34.1 ± 4.76 µM.

— article PMC7076352 (Pharmaceutics, 2020)
